Laboratory results reported in patent US7064120B2, “Tricyclic pyridyl carboxamides and derivatives thereof tocolytic oxytocin receptor antagonists” (Wyeth, priority 2001, dated 2006).

What follows are molecules tested against T1, human oxytocin receptor (Homo sapiens, UniProt P30559) (assay: Oxytocin binding in CHO cell membranes expressing human oxytocin receptors ([3H]oxytocin radioligand binding)). Settings: 100 nM, read-out: OT % inhibition @ 100 nM.
T1 construct: host or cells: CHO cells, stably transfected (pcDNA3.1 vector)
T1 sequence (P30559 1-389): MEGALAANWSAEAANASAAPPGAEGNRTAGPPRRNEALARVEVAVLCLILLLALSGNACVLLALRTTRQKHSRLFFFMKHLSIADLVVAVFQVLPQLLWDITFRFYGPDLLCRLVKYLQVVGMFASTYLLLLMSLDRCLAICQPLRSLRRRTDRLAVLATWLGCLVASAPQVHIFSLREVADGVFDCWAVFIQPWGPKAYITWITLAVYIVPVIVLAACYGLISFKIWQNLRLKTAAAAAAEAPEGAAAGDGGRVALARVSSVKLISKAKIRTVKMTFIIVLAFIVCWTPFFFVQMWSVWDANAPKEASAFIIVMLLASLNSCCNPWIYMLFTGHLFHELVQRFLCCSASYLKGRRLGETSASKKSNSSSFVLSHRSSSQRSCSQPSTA
Method in brief: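 CHO membranes expressing human oxytocin receptor (25–50 μg protein/well) incubated 60 min at room temperature with [3H]oxytocin in Tris-HCl pH 7.4 buffer with MgCl2, BSA and protease inhibitors. Filtration and scintillation counting; reported as % inhibition at a stated concentration or nM IC50.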

Q: With `Cc1cc(C(=O)N2Cc3ccc(C(=O)NCc4ccncc4)n3Cc3ccccc32)ccc1-c1ccccc1C(F)(F)F` [Example 100, 10-{[2-Methyl-2′-trifluoromethyl-[1,1′-biphenyl]-4-yl]carbonyl}-N-(4-pyridinylmethyl)-10,11-dihydro-5H-pyrrolo[2,1-c][1,4]benzodiazepine-3-carboxamide] as the molecule, how does the inhibition at 0.1 µM read?
A: 24%

Q: How did the inhibition at 0.1 µM turn out when `COc1ccccc1-c1ccc(C(=O)N2Cc3ccc(C(=O)N(C)Cc4cccnc4)n3Cc3ccccc32)cc1` [Example 104, 10-[(2′-Methoxy-[1,1′-biphenyl]-4-yl)carbonyl]-N-methyl-N-(3-pyridinylmethyl)-10,11-dihydro-5H-pyrrolo[2,1-c][1,4]benzodiazepine-3-carboxamide] was run?
A: 99%

Q: `Cc1ccccc1-c1ccc(C(=O)N2Cc3ccc(C(=O)N(C)Cc4cccnc4)n3Cc3ccccc32)cc1` [Example 105, N-Methyl-10-[(2′-methyl-[1,1′-biphenyl]-4-yl)carbonyl]-N-(3-pyridinylmethyl)-10,11-dihydro-5H-pyrrolo[2,1-c][1,4]benzodiazepine-3-carboxamide] was tested. Which inhibition at 0.1 µM did it give?
A: -9%

Same assay, conditions: value in parentheses, read-out: OT (IC50)

Q: How did the IC50 turn out when `COc1ccccc1-c1ccc(C(=O)N2Cc3ccc(C(=O)N(C)Cc4cccnc4)n3Cc3ccccc32)cc1C` [Example 101, 10-[(2′-Methoxy-2-methyl-[1,1′-biphenyl]-4-yl)carbonyl]-N-methyl-N-(3-pyridinylmethyl)-10,11-dihydro-5H-pyrrolo[2,1-c][1,4]benzodiazepine-3-carboxamide] was run?
A: 2.23 nM

Q: With `COc1cccc(-c2ccc(C(=O)N3Cc4ccc(C(=O)N(C)Cc5cccnc5)n4Cc4ccccc43)cc2C)c1` [Example 102, 10-[(3′-Methoxy-2-methyl-[1,1′-biphenyl]4-yl)carbonyl]-N-methyl-N-(3-pyridinyImethyl)-10,11-dihydro-5H-pyrrolo[2,1-c][1,4]benzodiazepine-3-carboxamide] as the molecule, how does the IC50 read?
A: 4.14 nM

Q: `COc1ccccc1-c1ccc(C(=O)N2Cc3ccc(C(=O)N(C)Cc4cccnc4)n3Cc3ccccc32)cc1OC` [Example 103, 10-[(2,2′-Dimethoxy-[1,1′-biphenyl]-4-yl)carbonyl]-N-methyl-N-(3-pyridinylmethyl)-10,11-dihydro-5H-pyrrolo[2,1-c][1,4]benzodiazepine-3-carboxamide] was tested. Which IC50 did it give?
A: 6.25 nM

Q: Which IC50 does the source give for `Cc1cc(C(=O)N2Cc3ccc(C(=O)N(C)Cc4cccnc4)n3Cc3ccccc32)ccc1-c1ccccc1C(F)(F)F` [Example 112, N-Methyl-10-{[2-methyl-2′-trifluoromethyl-[1,1′-biphenyl]-4-yl]carbonyl}-N-(3-pyridinylmethyl)-10,11-dihydro-5H-pyrrolo[2,1-c][1,4]benzodiazepine-3-carboxamide] here?
A: 3.87 nM

Q: `COc1ccccc1-c1ccc(C(=O)N2Cc3ccc(C(=O)N4CCN(c5ccncc5)CC4)n3Cc3ccccc32)cc1C` [Example 113, {10-[(2′-Methoxy-2-methyl-[1,1′-biphenyl]-4-yl)carbonyl]-10,11-dihydro-5H-pyrrolo[2,1-c][1,4]benzodiazepin-3-yl}[4-(4-pyridinyl)-1-piperazinyl]methanone] was tested. Which IC50 did it give?
A: 10.8 nM
